Measured values published in patent US10035840B2, “Targeted coagulation factors and method of using the same” (Bayer HealthCare LLC, priority 2008, dated 2018).
Positions of bridges follow the written chain, without caps; N, C: chain ends. Non-standard residues stand in square brackets, D forms with d. Residues, ends and D or L forms follow the SMILES beside them. Groups on a side chain read outwards from the residue. *: point of attachment. FITC = O=C1OC2(c3ccc(O)cc3Oc3cc(O)ccc32)c2ccc(NC(=S)*)cc21; Propanoyl(3-maleimido) = O=C1C=CC(=O)N1CCC(=O)*; hArg = N=C(N)NCCCC[C@H](N)C(=O)O; Ahx = NCCCCCC(=O)O; Mpa = O=C(O)CCS

Target: T1, GPIIb-IIIa (Homo sapiens, UniProt P05106+P08514)
T1 construct: purchased Innovative Research, Novi, Mich
T1 sequence (P08514 32-887 limits assumed): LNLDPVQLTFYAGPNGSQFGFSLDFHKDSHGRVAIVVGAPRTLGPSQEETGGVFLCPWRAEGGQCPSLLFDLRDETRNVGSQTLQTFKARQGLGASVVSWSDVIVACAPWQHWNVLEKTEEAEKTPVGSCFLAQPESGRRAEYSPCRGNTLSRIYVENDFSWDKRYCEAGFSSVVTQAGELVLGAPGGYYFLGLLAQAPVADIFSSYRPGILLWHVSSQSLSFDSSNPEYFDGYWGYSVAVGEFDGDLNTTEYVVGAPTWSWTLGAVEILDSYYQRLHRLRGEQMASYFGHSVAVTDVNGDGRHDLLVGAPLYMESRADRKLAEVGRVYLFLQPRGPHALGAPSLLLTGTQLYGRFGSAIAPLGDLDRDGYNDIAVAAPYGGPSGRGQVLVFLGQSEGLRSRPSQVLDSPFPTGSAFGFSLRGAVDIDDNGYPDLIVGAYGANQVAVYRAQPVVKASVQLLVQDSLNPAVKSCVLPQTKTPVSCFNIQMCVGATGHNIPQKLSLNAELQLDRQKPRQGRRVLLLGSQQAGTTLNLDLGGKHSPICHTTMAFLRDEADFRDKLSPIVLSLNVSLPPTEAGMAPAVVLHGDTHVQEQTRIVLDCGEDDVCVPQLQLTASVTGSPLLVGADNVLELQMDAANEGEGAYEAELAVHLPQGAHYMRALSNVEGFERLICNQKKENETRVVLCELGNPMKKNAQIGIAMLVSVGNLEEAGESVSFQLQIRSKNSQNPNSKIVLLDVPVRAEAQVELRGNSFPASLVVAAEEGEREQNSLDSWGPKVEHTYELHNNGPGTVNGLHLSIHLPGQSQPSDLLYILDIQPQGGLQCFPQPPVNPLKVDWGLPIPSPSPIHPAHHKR
T1 sequence (P05106 27-788): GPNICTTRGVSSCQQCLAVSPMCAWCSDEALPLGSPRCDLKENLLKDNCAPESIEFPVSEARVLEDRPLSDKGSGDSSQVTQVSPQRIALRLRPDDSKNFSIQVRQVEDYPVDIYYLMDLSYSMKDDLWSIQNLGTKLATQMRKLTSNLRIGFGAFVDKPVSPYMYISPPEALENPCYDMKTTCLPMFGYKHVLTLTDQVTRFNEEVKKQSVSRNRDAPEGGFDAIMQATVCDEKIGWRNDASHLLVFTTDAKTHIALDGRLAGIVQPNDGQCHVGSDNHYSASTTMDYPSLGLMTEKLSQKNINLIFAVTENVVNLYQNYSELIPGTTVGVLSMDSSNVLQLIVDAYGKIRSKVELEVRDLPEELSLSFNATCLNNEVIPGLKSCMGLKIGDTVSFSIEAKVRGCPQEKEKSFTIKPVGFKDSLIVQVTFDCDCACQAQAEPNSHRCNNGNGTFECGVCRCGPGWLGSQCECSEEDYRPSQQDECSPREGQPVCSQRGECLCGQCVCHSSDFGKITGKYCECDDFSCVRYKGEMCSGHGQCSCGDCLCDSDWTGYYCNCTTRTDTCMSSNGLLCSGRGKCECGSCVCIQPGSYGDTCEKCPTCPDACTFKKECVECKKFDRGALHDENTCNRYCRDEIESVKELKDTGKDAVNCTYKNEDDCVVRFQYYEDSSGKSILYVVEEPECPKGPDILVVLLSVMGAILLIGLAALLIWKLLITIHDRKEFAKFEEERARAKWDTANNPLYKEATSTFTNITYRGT
Test: Solid phase binding assay: competition of fibrinogen binding to immobilized GPIIb-IIIa
Description: Peptide binding to GPIIb-IIIa was measured using a solid phase binding assay in which competition of fibrinogen binding by testing compounds is measured. The assay was performed as follows. Purified GPIIb-IIIa (Innovative Research, Novi, Mich.) was coated onto 96-well Immulon-B plates at […]×2 μg/mL, diluted in Buffer A (20 mM Tris pH 7.5, 0.15 M NaCl, and 1 mM each of MgCl2, CaCl2, and MnCl2). After overnight incubation at 4° C., the plate was blocked for 1 hour at 30° C., with 3.5% BSA in Buffer B (50 mM Tris pH 7.5, 0.1 M NaCl, and 1 mM each of MgCl2, CaCl2, and MnCl2). After washing 3 times with Buffer B, diluted peptide or protein solutions were combined with 3.5 nM biotinylated fibrinogen in 0.1% BSA/Buffer B and added to the wells, incubating at 30° C. for 2 hr. After washing (3 times, Buffer B), 1:4000 streptavidin-horseradish peroxidase (HRP) was added (Pierce Chemical Co., Rockford, Ill.) for 1 hour at 30° C. After a final washing step (3 times, Buffer B), the plate was developed with Ultra TMB (3,3′,5,5′-tetramentylbenzidine) (Pierce Chemical Co., Rockford, Ill.) for 5 minutes, stopping with an equal volume of 2 M sulfuric acid. Plate absorbances were read at 450 nm, and IC50 values determined using a 4-parameter logistic fit.

**Q.** `N=C(N)NCCCC[C@@H]1NC(=O)CCSSC[C@@H](C(N)=O)NC(=O)[C@@H]2CCCN2C(=O)[C@H](Cc2c[nH]c3ccccc23)NC(=O)[C@H](CC(=O)O)NC(=O)CNC1=O` [Integrelin, reference compound] ([Mpa][hArg]GDWPC-NH2; disulfide 1-7) was tested. Which IC50 (3.5 nM biotinylated fibrinogen, mean +/- spread, N in separate column or in text, read-out: IC50, inhibition of fibrinogen binding to immobilized GPIIb/IIIa) did it give?
**A.** The IC50 was 1.3 nM.

**Q.** For `N=C(N)NCCCC[C@@H]1NC(=O)CCSSC[C@@H](C(=O)N[C@@H](CCCCNC(=O)CCCCCNC(=O)CCN2C(=O)C=CC2=O)C(=O)N[C@@H](CCCCNC(=S)Nc2ccc3c(c2)C(=O)OC32c3ccc(O)cc3Oc3cc(O)ccc32)C(N)=O)NC(=O)[C@@H]2CCCN2C(=O)[C@H](Cc2c[nH]c3ccccc23)NC(=O)[C@H](CC(=O)O)NC(=O)CNC1=O` [BHRF-3] ([Mpa][hArg]GDWPCK([Ahx-Propanoyl(3-maleimido)])K(FITC)-NH2; disulfide 1-7), which “Blocking of fibrinogen binding to immobilized GPIIb-IIIa, in words” value is on record?
**A.** Its value is “potently blocked”.

**Q.** With `N=C(N)NCCCC[C@@H]1NC(=O)CCSSC[C@@H](C(=O)N[C@@H](CCCCNC(=O)CCCCCNC(=O)CCN2C(=O)C=CC2=O)C(N)=O)NC(=O)[C@@H]2CCCN2C(=O)[C@H](Cc2c[nH]c3ccccc23)NC(=O)[C@H](CC(=O)O)NC(=O)CNC1=O` [BHRF-1] ([Mpa][hArg]GDWPCK([Ahx-Propanoyl(3-maleimido)])-NH2; disulfide 1-7) as the compound, how does the “Blocking of fibrinogen binding to immobilized GPIIb-IIIa, in words” value read?
**A.** The value was “potently blocked”.
